From PubChem BioAssay AID2060328 (Molecular Pharmacology Branch, DTP, NCI, 2025)

Test system: MDA-MB-231 multicell spheroids, viability (%T/C)
Experiment: Anticancer human tumor MDA-MB-231 cell line growth inhibition [IpAb];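 note: viability read after seven days of drug exposure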;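 for viability, T/C: 100% = DMSO vehicle control viability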
Details: for IC50: curve of first compound; for viability, T/C: stronger effect = lower value
Method in brief: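 Combinations with ipatasertib or abemaciclib were tested on tumour spheroids holding HUVEC (25%) and MSC (15%) alongside 60% malignant cells. Top concentration was at or near clinical Cmax (10 microM if undefined), descending in half-log steps.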

Cn1ncnc1[C@H]1c2n[nH]c(=O)c3cc(F)cc(c23)N[C@@H]1c1ccc(F)cc1 + CCN1CCN(Cc2ccc(Nc3ncc(F)c(-c4cc(F)c5nc(C)n(C(C)C)c5c4)n3)nc2)CC1
IC50 (second compound 0.01 µM): > 100 nM | IC50 (second compound 0.0316 µM): > 100 nM | IC50 (second compound 0.1 µM): 37.6 nM | IC50 (second compound 0.316 µM): < 0.316 nM | IC50 (second compound 1 µM): < 0.316 nM | viability, T/C (second compound 0.01 µM, first compound 0.000316 µM): 86.5% | viability, T/C (second compound 0.01 µM, first compound 0.001 µM): 85.5% | viability, T/C (second compound 0.01 µM, first compound 0.00316 µM): 79.6% | viability, T/C (second compound 0.01 µM, first compound 0.01 µM): 70.9% | viability, T/C (second compound 0.01 µM, first compound 0.0316 µM): 69.2% | viability, T/C (second compound 0.01 µM, first compound 0.1 µM): 65.9% | viability, T/C (second compound 0.0316 µM, first compound 0.000316 µM): 74.8% | viability, T/C (second compound 0.0316 µM, first compound 0.001 µM): 72.1% | viability, T/C (second compound 0.0316 µM, first compound 0.00316 µM): 65.2% | viability, T/C (second compound 0.0316 µM, first compound 0.01 µM): 60% | viability, T/C (second compound 0.0316 µM, first compound 0.0316 µM): 59.1% | viability, T/C (second compound 0.0316 µM, first compound 0.1 µM): 55% | viability, T/C (second compound 0.1 µM, first compound 0.000316 µM): 58.8% | viability, T/C (second compound 0.1 µM, first compound 0.001 µM): 56.4% | viability, T/C (second compound 0.1 µM, first compound 0.00316 µM): 51.5% | viability, T/C (second compound 0.1 µM, first compound 0.01 µM): 51.1% | viability, T/C (second compound 0.1 µM, first compound 0.0316 µM): 51.5% | viability, T/C (second compound 0.1 µM, first compound 0.1 µM): 48.7% | viability, T/C (second compound 0.316 µM, first compound 0.000316 µM): 46.5% | viability, T/C (second compound 0.316 µM, first compound 0.001 µM): 46.6% | viability, T/C (second compound 0.316 µM, first compound 0.00316 µM): 43.9% | viability, T/C (second compound 0.316 µM, first compound 0.01 µM): 43.3% | viability, T/C (second compound 0.316 µM, first compound 0.0316 µM): 42.9% | viability, T/C (second compound 0.316 µM, first compound 0.1 µM): 40.4% | viability, T/C (second compound 1 µM, first compound 0.000316 µM): 48% | viability, T/C (second compound 1 µM, first compound 0.001 µM): 49.3% | viability, T/C (second compound 1 µM, first compound 0.00316 µM): 50.2% | viability, T/C (second compound 1 µM, first compound 0.01 µM): 46.3% | viability, T/C (second compound 1 µM, first compound 0.0316 µM): 48.5% | viability, T/C (second compound 1 µM, first compound 0.1 µM): 46.9%
